According to publication PMC10835127, “Viruses traverse the human proteome through peptide interfaces that can be biomimetically leveraged for drug discovery” (Proceedings of the National Academy of Sciences of the …, 2024):
Read-outs that look alike come from different tables or passages of the source.

Assays:
HCV replicon = assay type: cell-based; conditions: normalized mean of HCV replicon readout
influenza A H1N1 virus = conditions: 48 hr post-treatment, A549
EBV = conditions: normalized mean of EBV replication readout
HIV1 strain NL4-3 = assay type: cell-based; conditions: for HIV1 Norm MEAN: normalized mean of HIV1 replication readout
[1] = test system: F. novicida (strain U112); assay type: cell-based

| Substance | HCV Norm MEAN (HCV replicon; peptide screen) | Neuraminidase activity normalized to vehicle (influenza A H1N1 virus; 200 µM peptide) | Neuraminidase activity normalized to vehicle (influenza A H1N1 virus; 0,823 µM peptide) | Neuraminidase activity normalized to vehicle (influenza A H1N1 virus; 22,2 µM peptide) | Neuraminidase activity normalized to vehicle (influenza A H1N1 virus; 2,4691 µM peptide) | Neuraminidase activity normalized to vehicle (influenza A H1N1 virus; 7,4074 µM peptide) | Neuraminidase activity normalized to vehicle (influenza A H1N1 virus; 66,6667 µM peptide) | EBV Norm MEAN (EBV; peptide screen) | HIV1 Norm MEAN (HIV1 strain NL4-3; peptide screen) | Francisella novicida Norm AUC [1] | HCV Norm MEAN (HCV replicon) | EBV Norm MEAN (EBV) | HIV1 Norm MEAN (HIV1 strain NL4-3) | activity in HIV1 screen (in words) (HIV1 strain NL4-3; 20 µM peptide, HeLa P4 cells, β-galactosidase) |
| --- | --- | --- | --- | --- | --- | --- | --- | --- | --- | --- | --- | --- | --- | --- |
| AHQNSQTHQASLSKQ [CPEP43] | 1.077 | 0,8034 | 0,7858 | 0,9843 | 0,876 | 0,8511 | 0,7841 | 0.682 | 0.3977 | 1.137 |  |  |  |  |
| RYSKRRHGRR [CPEP118] |  | 0,7942 | 0,9639 | 0,7875 | 0,9014 | 0,7974 | 0,7776 |  |  | 1.247 | 0.2514 | 1.996 | 1.129 |  |
| YFADLLI [CPEP50] |  | 0,2471 | 0,883 | 0,8095 | 0,771 | 0,9007 | 0,7183 |  |  | 0.9176 | 0.09464 | 1.15 | 1.681 |  |
| PPIPPPR [CPEP151] |  | 1,016 | 0,9906 | 0,9273 | 0,9123 | 0,9111 | 0,9435 |  |  | 1.288 | 0.3254 | 1.55 | 0.669 |  |
| IQIGNHNAM [CPEP67] |  | 0,0404 | 0,9632 | 0,5849 | 0,8279 | 0,768 | 0,4017 |  |  | 0.7313 | 0.7713 | 1.399 | 4.672 |  |
| CPEP136: peptide of the viral peptide library; sequence page not shown (VTNDCPNSSIVYE) | 0.4475 | 0,9602 | 0,8343 | 0,8466 | 0,9183 | 0,8168 | 0,9818 | 1.578 | 0.7957 | 1.265 |  |  |  |  |
| RRKAK [CPEP70] |  | 1,0392 | 0,9822 | 0,9863 | 0,9261 | 0,9473 | 1,0254 |  |  | 0.442 | 0.1385 | 1.652 | 3.517 |  |
| CPEP64: peptide of the viral peptide library; sequence page not shown (CCFHCQVCFIT) |  | 0,0708 | 0,8369 | 0,1905 | 0,9654 | 0,5226 | 0,0909 |  |  | 0.8687 | 1.72 | 0.8807 | 8.487 |  |
| DDLYEEV [CPEP111] |  | 0,7987 | 0,9384 | 0,8898 | 0,8026 | 0,8887 | 0,8909 |  |  | 0.6875 | 0.2545 | 0.5736 | 0.957 |  |
| DILDLWIYHTQGYFPDWQ [CPEP114] | 0.2469 | 0,4016 | 1,1783 | 1,017 | 1,0928 | 1,195 | 0,5539 | 1.296 | 4.359 | 1.151 |  |  |  |  |
| CPEP52: peptide of the viral peptide library; sequence page not shown (CFITKALGISYG) |  | 0,1673 | 0,9576 | 1,0146 | 1,1215 | 0,9392 | 0,5319 |  |  | 2.021 | 0.3655 | 2.225 | 5.563 |  |
| ELLSGLQEWL [CPEP85] |  | 0,9118 | 0,9858 | 0,8356 | 0,9371 | 0,8683 | 0,8029 |  |  | 1.212 | 0.7957 | 1.35 | 0.5625 |  |
| CPEP63: peptide of the viral peptide library; sequence page not shown (KARHKRRNRSSRS) |  | 0,8323 | 0,6161 | 0,9172 | 1 | 0,9177 | 0,9488 |  |  | 1.1166 | 0.5995 | 1.249 | 0.7086 |  |
| SEKHFRETEV [CPEP106] |  | 1,1108 | 0,9396 | 1,0803 | 0,9387 | 1,0552 | 1,1055 |  |  | 0.8616 | 1.4 | 1.282 | 0.4711 |  |
| SVWIPVNEGASTSGM [CPEP77] | 0.6626 | 0,8793 | 0,7817 | 0,9377 | 0,8942 | 0,7709 | 0,8131 | 1.026 | 0.1545 | 1.232 |  |  |  | most potent anti-HIV1 peptide |
